Test results: US11123340B2, “Small-molecule UT-A-selective urea transport inhibitors” (The Regents of the University of California, priority 2014, dated 2021)

How the values were obtained:
rat UT-B = target: T1, rat UT-B (Rattus norvegicus, UniProt P97689); experiment: UT-B inhibition, erythrocyte lysis assay; assay type: cell-based; conditions: for IC50: rat erythrocytes
T1 construct: endogenous in cells; host or cells: rat erythrocytes (whole rat blood)
T1 sequence (P97689 1-384): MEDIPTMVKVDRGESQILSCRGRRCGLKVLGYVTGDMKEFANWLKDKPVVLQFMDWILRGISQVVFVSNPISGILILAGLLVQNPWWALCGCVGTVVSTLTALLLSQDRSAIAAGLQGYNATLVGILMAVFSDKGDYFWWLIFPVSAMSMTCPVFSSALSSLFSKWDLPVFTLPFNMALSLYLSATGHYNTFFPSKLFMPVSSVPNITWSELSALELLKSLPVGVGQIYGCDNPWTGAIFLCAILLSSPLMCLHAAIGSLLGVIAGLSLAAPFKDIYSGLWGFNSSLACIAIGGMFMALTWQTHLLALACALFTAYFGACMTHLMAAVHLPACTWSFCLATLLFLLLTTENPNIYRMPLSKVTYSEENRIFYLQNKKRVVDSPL
Method: As described (see, e.g., Levin et al. (2007) FASEB J. 21, 551-563), whole rat blood was diluted to a hematocrit of ˜1.5% in PBS containing 1.25 M acetamide and 5 mM glucose. Erythrocyte suspensions (100 μL) were added to 96-well round-bottom microplates and test compounds (1 μL) were added. After 15 min incubation, 20 μL of the erythrocyte suspension was added rapidly to each well containing 180 μL of PBS. Following vigorous mixing, erythrocyte lysis was quantified by absorbance at 710 nm. Non-lysed controls (isosmolar buffer) and lysed controls (0.7 mM phloretin) were added in each plate as negative and positive controls, respectively. Percentage erythrocyte lysis was computed as: % lysis=100% (Aneg−Atest)/(Aneg−Apos), where A is absorbance at 710 nm.
Inhibitor selectivity for rat UT-A1 versus UT-B was investigated using an erythrocyte lysis assay of rat UT-B urea transport, which involved measurement of hypotonic lysis (by near-infrared absorbance) of acetamide-loaded erythrocytes following rapid dilution into acetamide-free buffer.

rat UT-A1 = target: T2, rat UT-A1 (Rattus norvegicus, UniProt Q62668); experiment: UT-A1 inhibition, fluorescence plate reader assay in MDCK cells expressing UT-A1, AQP1 and YFP-H148Q/V163S; assay type: cell-based
T2 construct: expressed in transfected cells; host or cells: MDCK cells stably co-expressing rat UT-A1, human AQP1 and YFP-H148Q/V163S
T2 sequence (Q62668 1-929): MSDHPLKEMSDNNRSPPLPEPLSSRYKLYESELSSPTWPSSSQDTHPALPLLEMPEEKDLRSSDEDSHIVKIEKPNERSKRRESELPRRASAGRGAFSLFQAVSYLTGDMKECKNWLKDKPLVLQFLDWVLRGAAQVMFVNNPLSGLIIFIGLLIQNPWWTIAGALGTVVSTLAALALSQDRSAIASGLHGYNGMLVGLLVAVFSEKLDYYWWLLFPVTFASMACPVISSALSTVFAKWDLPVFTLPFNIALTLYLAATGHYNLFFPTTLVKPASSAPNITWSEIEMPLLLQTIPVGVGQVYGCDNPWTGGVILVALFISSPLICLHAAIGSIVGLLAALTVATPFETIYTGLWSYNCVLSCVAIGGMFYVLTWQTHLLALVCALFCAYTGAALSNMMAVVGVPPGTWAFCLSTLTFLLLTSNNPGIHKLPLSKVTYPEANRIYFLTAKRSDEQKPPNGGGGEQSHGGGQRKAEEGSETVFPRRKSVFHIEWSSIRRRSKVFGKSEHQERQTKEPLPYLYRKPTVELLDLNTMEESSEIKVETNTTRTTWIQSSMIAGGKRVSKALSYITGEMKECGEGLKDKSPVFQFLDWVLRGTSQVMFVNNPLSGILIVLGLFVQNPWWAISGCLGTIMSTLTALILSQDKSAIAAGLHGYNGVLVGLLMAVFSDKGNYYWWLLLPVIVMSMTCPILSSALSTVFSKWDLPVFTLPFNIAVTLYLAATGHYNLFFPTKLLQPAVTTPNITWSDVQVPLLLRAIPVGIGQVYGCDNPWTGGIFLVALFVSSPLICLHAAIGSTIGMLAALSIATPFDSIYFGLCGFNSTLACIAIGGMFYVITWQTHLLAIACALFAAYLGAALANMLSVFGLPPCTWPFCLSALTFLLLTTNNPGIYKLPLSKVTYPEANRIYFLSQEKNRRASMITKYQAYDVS
Method: Primary screening was done using a collection of 50,000 chemically diverse, drug-like compounds from ChemDiv (San Diego, Calif.). For analysis of structure-activity relationships, >300 commercially available analogs (ChemDiv and Asinex, Winston-Salem, N.C.) were tested. Cells were plated on black 96-well Costar microplates with clear plastic bottoms (Corning, Corning, N.Y.) at 15,000 cells/well and cultured for 24 h at 37° C. before assay. Microplates containing cultured cells were washed twice with PBS and 150 μL of test compound (25 μM final) in PBS was added. Eighty wells contained test compounds, and the first and last columns of each plate contained negative (dimethyl sulfoxide, DMSO) and positive (0.35 mM phloretin) controls. The assays were done on a plate reader (Tecan Trading AG, Switzerland) equipped with a custom YFP filter set. Each assay consisted of a continuous 15-s read (5 Hz) in which 50 μL of 3.2 M urea in PBS was injected at 1 s (at 130 μL/s) to give a 800 mM final urea gradient.
MDCK cells stably expressing rat UT-A1 (see, e.g., Frohlich et al. (2006) Am J Physiol Cell Physiol. 291, C600-D606), YFP-H148Q/V163 S (see, e.g., Galietta, et al. (2001) FEBS Lett. 499, 220-224) and human AQP1, as described previously (see, e.g., Esteva-Font et al. (2013) Chem Biol. 20, 1235-1244), were grown in Dulbecco's modified Eagle medium (DMEM) containing 10% fetal bovine serum (FBS), penicillin G (100 U/mL), streptomycin (100 μg/mL), zeocin (500 μg/mL), geneticin (600 μg/mL) and Hygromycin (500 μg/mL) at 37° C., 5% CO2. A Cell Clone with bright YFP fluorescence and relatively low AQP1 expression was used for the screen to maximize dynamic range.
In order to identify UT-A inhibitors suitable for testing in rats, a collection of 50,000 synthetic small molecules was screened. As diagrammed in FIG. 1A (top), the fluorescence cell-based screen utilized MDCK cells stably rat expressing UT-A1, water channel AQP1 and the cytoplasmic chloride-sensing fluorescent protein YFP-H148Q/V163S. As described and validated previously (see, e.g., Esteva-Font et al. (2013) Chem Biol. 20, 1235-1244), extracellular addition of urea results in osmotic water efflux and cell shrinking, which increases intracellular chloride concentration and reduces YFP fluorescence. Urea entry results in increasing YFP fluorescence as cells re-swell. Inhibitors of UT-A1 urea transport produce a lesser reduction in fluorescence and slowed recovery.

UT = conditions: literature; cited from earlier work

Structure (SMILES): CC(=O)Nc1ccc(-c2csc(-c3ccccc3)n2)cc1 [UTA1inh-E01]
- selectivity for UT-A1 versus UT-B (rat UT-B; rat UT-A1 versus rat UT-B): high selectivity
- IC50 (rat UT-A1): 3 µM

Structure (SMILES): CC(=O)Nc1ccc(-c2csc(C)n2)cc1 [UTA1inh-E03]
- IC50 (rat UT-B): > 50 µM
- IC50 (rat UT-A1): > 50 µM

Structure (SMILES): COc1ccc(C)cc1S(=O)(=O)Nc1cccc(N2CCCS2(=O)=O)c1 [UTA1inh-F01]
- IC50 (rat UT-B): 6 µM
- IC50 (rat UT-A1): 1 µM

Structure (SMILES): Cc1ccc(C)c(S(=O)(=O)Nc2cccc(N3CCCS3(=O)=O)c2)c1 [UTA1inh-F02]
- IC50 (rat UT-B): > 75 µM
- IC50 (rat UT-A1): 15 µM

Structure (SMILES): Cc1cc(C)c(S(=O)(=O)Nc2cccc(N3CCCS3(=O)=O)c2)cc1C [UTA1inh-F03]
- IC50 (rat UT-B): 15 µM
- IC50 (rat UT-A1): 3 µM

Structure (SMILES): COc1ccc(F)cc1S(=O)(=O)Nc1cccc(N2CCCS2(=O)=O)c1 [UTA1inh-F04]
- IC50 (rat UT-B): > 75 µM
- IC50 (rat UT-A1): 5 µM

Structure (SMILES): COc1cc(C)c(C)cc1S(=O)(=O)Nc1cccc(N2CCCS2(=O)=O)c1 [UTA1inh-F05]
- IC50 (rat UT-B): 20 µM
- IC50 (rat UT-A1): 3 µM

Structure (SMILES): Cc1ccc(C)c(S(=O)(=O)Nc2cc(N3CCCS3(=O)=O)ccc2C)c1 [UTA1inh-F06]
- IC50 (rat UT-B): > 75 µM
- IC50 (rat UT-A1): 10 µM

Structure (SMILES): COc1ccc(F)cc1S(=O)(=O)Nc1cc(N2CCCS2(=O)=O)ccc1C [UTA1inh-F07]
- IC50 (rat UT-B): > 75 µM
- IC50 (rat UT-A1): 15 µM

Structure (SMILES): COc1cc(C)c(C)cc1S(=O)(=O)Nc1cc(N2CCCS2(=O)=O)ccc1C [UTA1inh-F08]
- IC50 (rat UT-B): 20 µM
- IC50 (rat UT-A1): 30 µM

Structure (SMILES): COc1ccc(N2CCCS2(=O)=O)cc1NS(=O)(=O)c1cc(C)ccc1OC [UTA1inh-F09]
- IC50 (rat UT-B): 8 µM
- IC50 (rat UT-A1): 1 µM

Structure (SMILES): COc1ccc(N2CCCS2(=O)=O)cc1NS(=O)(=O)c1cc(C)ccc1C [UTA1inh-F10]
- IC50 (rat UT-B): > 75 µM
- IC50 (rat UT-A1): 5 µM

Structure (SMILES): COc1ccc(OC)c(S(=O)(=O)Nc2ccc(Cl)c(N3CCCS3(=O)=O)c2)c1 [UTA1inh-F12]
- IC50 (rat UT-A1): 5 µM

Structure (SMILES): COc1cc(C)c(C)cc1S(=O)(=O)Nc1ccc(Cl)c(N2CCCS2(=O)=O)c1 [UTA1inh-F13]
- IC50 (rat UT-A1): 8 µM

Structure (SMILES): O=C(CCc1ccc(O)cc1)c1c(O)cc(O)cc1O [phloretin]
- concentration exhibiting activity (UT): > 0.5 mM
